Consider one molecule from ChEMBL document CHEMBL4052776, “Discovery of 3-morpholino-imidazole[1,5-a]pyrazine BTK inhibitors for rheumatoid arthritis” (Bioorg Med Chem Lett, 2017).

In data set [1] the target is T1, Tyrosine-protein kinase BTK (Homo sapiens, UniProt Q06187). Put plainly: Inhibition of recombinant full-length His6-tagged BTK (unknown origin) expressed in baculovirus infected Sf9 cells using biotinylated A5 peptide as substrate preincubated for 60 mins followed by substrate addition measured after 120 mins by LANCE TR-FRET assay. (In TR-FRET formats the signal depends on donor and acceptor labels being close together.)
T1 sequence (Q06187 whole entry): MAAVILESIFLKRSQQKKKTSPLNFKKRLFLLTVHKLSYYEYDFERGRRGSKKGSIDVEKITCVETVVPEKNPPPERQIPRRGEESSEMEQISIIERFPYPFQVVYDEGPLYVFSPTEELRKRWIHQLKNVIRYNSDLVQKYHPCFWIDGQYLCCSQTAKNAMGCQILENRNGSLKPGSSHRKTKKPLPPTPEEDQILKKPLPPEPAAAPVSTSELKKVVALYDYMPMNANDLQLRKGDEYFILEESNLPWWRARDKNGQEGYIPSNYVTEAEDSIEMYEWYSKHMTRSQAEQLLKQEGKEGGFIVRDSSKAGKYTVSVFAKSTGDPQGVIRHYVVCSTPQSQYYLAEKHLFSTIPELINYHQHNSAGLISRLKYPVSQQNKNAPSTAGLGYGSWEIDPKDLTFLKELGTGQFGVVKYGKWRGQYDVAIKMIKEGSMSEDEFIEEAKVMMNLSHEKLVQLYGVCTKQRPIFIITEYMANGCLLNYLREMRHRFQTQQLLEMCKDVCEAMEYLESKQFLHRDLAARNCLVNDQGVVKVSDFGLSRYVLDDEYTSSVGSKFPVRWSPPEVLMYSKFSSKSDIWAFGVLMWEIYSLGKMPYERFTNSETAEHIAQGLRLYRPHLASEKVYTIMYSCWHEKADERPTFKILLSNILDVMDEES

The target in data set [2] is T1, Tyrosine-protein kinase BTK. The data set is described as follows: Inhibition of BTK in human PBMC assessed as reduction in anti-IgM-induced MIP1beta.
For data set [3], the species on record is Homo sapiens. Put plainly: Selectivity ratio of IC50 for BMX (unknown origin) to IC50 for BTK (unknown origin).
The target of data set [4] is Tyrosine-protein kinase CSK (Homo sapiens, UniProt P41240). The data set is described as follows: Inhibition of CSK (unknown origin).
Chain of Tyrosine-protein kinase CSK (P41240 whole entry): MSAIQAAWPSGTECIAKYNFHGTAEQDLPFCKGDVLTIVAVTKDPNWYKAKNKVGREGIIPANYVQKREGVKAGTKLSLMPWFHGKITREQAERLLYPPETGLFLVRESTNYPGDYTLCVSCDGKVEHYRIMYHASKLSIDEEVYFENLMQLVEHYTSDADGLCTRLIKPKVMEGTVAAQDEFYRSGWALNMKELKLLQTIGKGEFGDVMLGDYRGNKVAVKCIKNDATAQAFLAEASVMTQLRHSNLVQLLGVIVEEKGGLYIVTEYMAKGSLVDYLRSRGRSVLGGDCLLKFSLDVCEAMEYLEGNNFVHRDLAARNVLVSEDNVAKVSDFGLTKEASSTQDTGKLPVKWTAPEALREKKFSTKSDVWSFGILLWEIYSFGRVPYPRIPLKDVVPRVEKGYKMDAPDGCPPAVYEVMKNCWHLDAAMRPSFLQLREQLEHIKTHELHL
Data set [5] addresses Receptor tyrosine-protein kinase erbB-4 (Homo sapiens, UniProt Q15303). Put plainly: Inhibition of ERBB4 (unknown origin).
The species entered for data set [6] is Homo sapiens. The data set is described as follows: Selectivity ratio of IC50 for FRK (unknown origin) to IC50 for BTK (unknown origin).
For data set [7], the species on record is Homo sapiens. The data set is described as follows: Selectivity ratio of IC50 for FYN (unknown origin) to IC50 for BTK (unknown origin).
For data set [8], the species on record is Homo sapiens. Put plainly: Selectivity ratio of IC50 for SRC (unknown origin) to IC50 for BTK (unknown origin).
The species named for data set [9] is Homo sapiens. The data set is described as follows: Selectivity ratio of IC50 for SRMS (unknown origin) to IC50 for BTK (unknown origin).
Data set [10] concerns the target T2, Tyrosine-protein kinase Tec (Homo sapiens, UniProt P42680).
T2 sequence (P42680 whole entry): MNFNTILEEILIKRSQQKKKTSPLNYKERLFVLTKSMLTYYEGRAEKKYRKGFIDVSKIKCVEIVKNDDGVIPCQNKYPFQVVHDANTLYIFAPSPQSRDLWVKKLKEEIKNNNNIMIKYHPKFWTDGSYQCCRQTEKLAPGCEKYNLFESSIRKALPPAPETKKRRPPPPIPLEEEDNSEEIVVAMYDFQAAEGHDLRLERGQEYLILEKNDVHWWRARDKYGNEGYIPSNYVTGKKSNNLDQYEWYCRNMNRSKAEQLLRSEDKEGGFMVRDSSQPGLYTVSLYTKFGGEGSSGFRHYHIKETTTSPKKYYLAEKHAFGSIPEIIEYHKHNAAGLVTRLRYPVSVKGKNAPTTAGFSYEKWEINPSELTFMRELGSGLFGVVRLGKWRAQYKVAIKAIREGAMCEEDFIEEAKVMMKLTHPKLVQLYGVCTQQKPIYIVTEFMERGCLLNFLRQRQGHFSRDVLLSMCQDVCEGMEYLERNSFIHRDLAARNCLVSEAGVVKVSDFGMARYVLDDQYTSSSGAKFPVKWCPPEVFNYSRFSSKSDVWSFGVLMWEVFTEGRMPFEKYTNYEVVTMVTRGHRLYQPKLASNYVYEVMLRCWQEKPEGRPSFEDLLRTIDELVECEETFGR
The data set is described as follows: Inhibition of TEC (unknown origin).

Data set [11] in a line: Total clearance in rat plasma at 10 mg/kg. The class given is ADME, organism-based.
The nature of data set [12]: Oral bioavailability in rat at 10 mg/kg. As to conditions: in vivo. The data set is classed as ADME, organism-based.

The IC50 is the concentration at which inhibition is half-maximal. A word on the clearance: it is the volume of plasma or blood freed of the substance per unit of time. Higher therefore signals efficient removal. A word on the bioavailability: it is dose-corrected exposure relative to a reference, in per cent.

Chain of Receptor tyrosine-protein kinase erbB-4 (Q15303 whole entry): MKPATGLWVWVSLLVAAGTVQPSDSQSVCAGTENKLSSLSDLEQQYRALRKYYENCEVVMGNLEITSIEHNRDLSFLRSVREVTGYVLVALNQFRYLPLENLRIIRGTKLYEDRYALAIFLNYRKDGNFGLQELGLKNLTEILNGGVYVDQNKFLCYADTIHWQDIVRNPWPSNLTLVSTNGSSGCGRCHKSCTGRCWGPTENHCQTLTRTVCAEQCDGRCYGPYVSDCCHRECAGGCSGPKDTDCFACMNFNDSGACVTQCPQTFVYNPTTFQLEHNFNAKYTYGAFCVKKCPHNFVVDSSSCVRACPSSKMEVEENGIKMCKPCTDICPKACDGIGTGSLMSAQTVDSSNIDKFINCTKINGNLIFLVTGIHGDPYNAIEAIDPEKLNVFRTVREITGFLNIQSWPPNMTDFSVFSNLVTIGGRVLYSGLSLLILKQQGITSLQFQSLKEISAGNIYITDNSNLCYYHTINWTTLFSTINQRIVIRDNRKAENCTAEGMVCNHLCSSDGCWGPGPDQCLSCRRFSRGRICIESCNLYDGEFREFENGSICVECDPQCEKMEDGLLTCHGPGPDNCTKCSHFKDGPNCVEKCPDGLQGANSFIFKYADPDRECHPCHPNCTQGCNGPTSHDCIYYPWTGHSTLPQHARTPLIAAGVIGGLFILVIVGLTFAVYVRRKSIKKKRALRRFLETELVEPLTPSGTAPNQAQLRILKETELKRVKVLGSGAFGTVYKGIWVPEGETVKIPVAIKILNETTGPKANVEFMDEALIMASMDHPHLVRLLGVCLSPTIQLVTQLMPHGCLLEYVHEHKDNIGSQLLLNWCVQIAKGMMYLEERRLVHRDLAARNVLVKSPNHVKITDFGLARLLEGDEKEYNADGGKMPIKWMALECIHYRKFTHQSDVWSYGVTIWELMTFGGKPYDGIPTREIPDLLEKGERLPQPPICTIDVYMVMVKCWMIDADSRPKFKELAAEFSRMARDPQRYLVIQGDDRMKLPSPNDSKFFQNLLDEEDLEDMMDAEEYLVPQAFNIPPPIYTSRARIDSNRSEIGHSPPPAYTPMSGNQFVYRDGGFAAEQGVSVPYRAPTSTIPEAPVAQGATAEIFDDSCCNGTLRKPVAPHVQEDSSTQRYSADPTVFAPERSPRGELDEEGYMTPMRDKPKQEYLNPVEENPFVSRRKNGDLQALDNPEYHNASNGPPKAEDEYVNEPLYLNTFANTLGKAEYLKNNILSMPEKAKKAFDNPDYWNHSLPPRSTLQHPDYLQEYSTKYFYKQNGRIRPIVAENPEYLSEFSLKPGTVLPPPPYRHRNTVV

As to `CC(C)C(=O)N1CCO[C@@H](c2nc(-c3ccc(C(=O)Nc4cc(C(F)(F)F)ccn4)cc3F)c3c(N)nccn23)C1`, the IC50 in data set [1] was 0.4 to 0.44 nM; in data set [2], 26 nM; in data set [4], 2150 nM; in [5], 514 nM; in [10], 428 nM. Further, the Ratio IC50 in the data set listed under Homo sapiens [3] worked out at 1600; in the data set listed under Homo sapiens [6], 1600; in the data set filed under Homo sapiens [7], 4330; in the data set listed under Homo sapiens [8], 1160; in the data set filed under Homo sapiens [9], 234. In data set [11], the clearance was 1.4 mL/min/kg. Also, the bioavailability in data set [12] came out at 87%.
